What was measured:
[1] = test system: stress ulcers in the stomachs of rats; experiment: anti-ulcer activity, stress ulcer (stress and cold); type: in vivo, rat (female); settings: 10 mg/kg, by esophageal tube
Protocol: (2) Determination of anti-ulcer activity
The technique consists in inducing ulcers in the stomachs of rats by stress (stress and cold). The technique used is described by E. C. SENAY and R. J. LEVINE, Proc. Soc. Exp. Biol., 124, 1221 (1967).
Female rats of 150 g were used (5 animals per lot) which have fasted for 48 hours with water ad libitum and glucose solution for 8 hours. The animals were given the compound being tested, or 0.5% solution of carboxymethylcellulose for the control animals, by esophageal tube. Two hours later the animals were bundled in a jacket of netting. Their paws were tied and the entire unit was placed in a refrigerator at 8° C. for two hours. The rats were released and killed with ether.
Their stomachs were opened along the greater curvature and examined with a binocular magnifier. The seriousness of the lesions was rated from 0 to 3 for each stomach.
For each lot of the rats, the average intensity of the ulcerations was determined. The degree of ulceration for the test animals was determined and compared with the control animals for each lot.

gastric secretions = experiment: anti-gastric secretion activity (Shay, pylorus-ligated rats), total acidity of gastric juice; type: in vivo, rat (male); settings: 10 mg/kg, intraduodenally, 3 hours
Protocol: (1) Determination of the anti-gastric secretion activity
The technique used is described by H. SHAY et al. in Gastroenterology, 5, 43, (1945).
Male rats were used weighing about 200 g (10 animals per lot) which had been without food for 48 hours but were allowed an 8% glucose solution ad libitum. After the rats were slightly anesthetized with ether, the pylorus of each was ligated. After the end of the operation, the compound to be tested was administered intraduodenally in different doses, or in the case of the control animals, a 0.5% solution of carboxymethylcellulose was administered intraduodenally, after which the abdominal incision was sutured.
Three hours later, the animals were sacrificed and their stomachs removed, after ligating the esophagus. The gastric juice was removed and centrifuged. The volume of gastric juice was then determined and the total acidity was established by titrating a 100 μl sample of gastric juice to a pH of 7 by means of 1/10 N aqueous sodium hydroxide solution.
The percentages of variation in total acidity between gastric secretions of the test and control animals were calculated, with the results appearing below.

acute toxicity (LD50) = settings: mouse, in vivo, po; orally in mice
Protocol: (3) Determination of acute toxicity
The LD50 was evaluated after administration of the products orally in mice.

COc1cc(C(=O)/C=C/C(=O)O)ccc1O [Example 1, (E) 4-(3-methoxy-4-hydroxyphenyl)-4-oxobuten-2-oic acid]
Anti-ulcer activity: Ulceration (% variation as compared with the controls) [1]: -89% | Anti-secretion activity: Acid conc. (% variation as compared with the controls) (gastric secretions): -90% | LD50 (acute toxicity (LD50)): 1000 mg/kg

O=C(O)/C=C/C(=O)c1ccc2c(c1)OCCO2 [Example 2, (E) 4-(2,3-dihydrobenzodioxine-6-yl)-4-oxobuten-2-oic acid]
Anti-ulcer activity: Ulceration (% variation as compared with the controls) [1]: -33% | Anti-secretion activity: Acid conc. (% variation as compared with the controls) (gastric secretions): -41% | LD50 (acute toxicity (LD50)): 750 mg/kg

— patent US4500731A, “Derivatives of 4-phenyl-4-oxobuten-2-oic acid, pharmaceutical compositions containing them, and therapeutic uses for them” (Roussel Uclaf, priority 1981, dated 1985)
